Series [1] is described as follows: bioavailability / absorption of nucleoside and prodrug. The format is in vivo.
Another series has as its system hepatitis C virus (HCV). The settings on record: patients infected with hepatitis C virus.

With `CC(C)C(=O)OC[C@@]1(N=[N+]=[N-])O[C@@H](n2ccc(N)nc2=O)[C@H](OC(=O)C(C)C)[C@@H]1OC(=O)C(C)C.Cl` [I, isobutyric acid (2R,3S,4R,5R)-5-(4-amino-2-oxo-2H-pyrimidin-1-yl)-2-azido-3,4-bis-iso-butyryloxy-tetrahydro-furan-2-ylmethyl ester; hydrochloride salt], in series [1] (in vivo), the absorption entry is “efficiently absorbed”. Moreover, the “reversion of prodrug in plasma” value in series [1] (plasma) was “revert to I in plasma”. Besides, the viral load result in the series with hepatitis C virus (HCV) is recorded as “decrease the viral load”.
In the case of `[N-]=[N+]=NC1(CO)OC(n2ccc(N)nc2=O)C(O)C1O` (stereo not shown) [II, 4-Amino-1-(5-azido-3,4-dihydroxy-5-hydroxymethyl-tetrahydro-furan-2-yl)-1H-pyrimidin-2-one, reference compound], the bioavailability result in series [1] (in vivo) is reported as “insufficient bioavailabilty”.
